Test results from the NIST ThermoML archive (doi:10.1016/j.jct.2016.07.051).

Test: mn = molality of the nth substance listed, in mol/kg
Conditions: 100 kPa, Liquid; for speed of sound: Frequency=3 MHz, Sing-around technique in a fixed-path interferometer; for mass density: Vibrating tube method

O [water] + O=C[C@H](O)[C@@H](O)[C@H](O)[C@H](O)CO
m2 = 0
Conditions | mass density [kg/m3] | speed of sound [m/s]
313.15 K | – | 1528.9
318.15 K | – | 1536.6
323.15 K | 988.031 | –

O [water] + CCC[NH3+].O=C[O-]
m2 = 0
Conditions | mass density [kg/m3] | speed of sound [m/s]
313.15 K | – | 1528.9
318.15 K | – | 1536.6
323.15 K | 988.031 | –

CCC[NH3+].O=C[O-] [propylammonium formate] + O
Conditions | mass density, m1 = 0.1 [kg/m3] | mass density, m1 = 0.2 [kg/m3] | mass density, m1 = 0.3 [kg/m3] | mass density, m1 = 0.4 [kg/m3] | speed of sound, m1 = 0.1 [m/s] | speed of sound, m1 = 0.2 [m/s] | speed of sound, m1 = 0.3 [m/s] | speed of sound, m1 = 0.4 [m/s]
293.15 K | 999.222 | 1000.07 | 1000.91 | 1001.81 | 1492.2 | 1500.4 | 1508.2 | 1516.9
298.15 K | 997.851 | 998.673 | 999.689 | 1000.56 | 1505.7 | 1513.4 | 1520.8 | 1528.9
303.15 K | 996.637 | 997.448 | 998.238 | 999.087 | 1517.5 | 1524.9 | 1531.8 | 1539.4
308.15 K | 994.884 | 995.676 | 996.581 | 997.41 | 1527.8 | 1534.7 | 1541.3 | 1548.4
313.15 K | 993.191 | 993.97 | 994.725 | 995.542 | 1536.4 | 1543 | 1549.3 | 1555.9
318.15 K | 990.986 | 991.749 | 992.694 | 993.502 | 1543.6 | 1549.9 | 1555.9 | 1562
323.15 K | 988.793 | 989.611 | 990.498 | 991.295 | 1550.5 | 1555.4 | 1561.1 | 1566.9

O=C[C@H](O)[C@@H](O)[C@H](O)[C@H](O)CO [D-glucose] + O
Conditions | mass density [kg/m3] | speed of sound [m/s]
293.15 K, m1 = 0.05008 | 1001.67 | –
293.15 K, m1 = 0.0698 | 1003.02 | 1487
293.15 K, m1 = 0.09118 | 1004.47 | 1488.3
293.15 K, m1 = 0.1108 | 1005.8 | 1489.5
293.15 K, m1 = 0.1312 | – | 1490.8
298.15 K, m1 = 0.05008 | 1000.44 | –
298.15 K, m1 = 0.0698 | 1001.76 | 1501.4
298.15 K, m1 = 0.09118 | 1003.17 | 1502.7
298.15 K, m1 = 0.1108 | 1004.47 | 1504
298.15 K, m1 = 0.1312 | 1005.8 | 1505.3
303.15 K, m1 = 0.05008 | 999.038 | 1512.2
303.15 K, m1 = 0.0698 | 1000.35 | 1513.4
303.15 K, m1 = 0.09118 | 1001.76 | 1514.7
303.15 K, m1 = 0.1108 | 1003.05 | 1515.9
303.15 K, m1 = 0.1312 | 1004.38 | 1517.2
303.15 K, m1 = 0.1499 | 1005.58 | 1518.3
308.15 K, m1 = 0.05008 | 997.396 | 1522.8
308.15 K, m1 = 0.0698 | 998.701 | 1524
308.15 K, m1 = 0.09118 | 1000.11 | 1525.4
308.15 K, m1 = 0.1108 | 1001.39 | 1526.6
308.15 K, m1 = 0.1312 | 1002.71 | –
308.15 K, m1 = 0.1499 | 1003.91 | 1529
313.15 K, m1 = 0.05008 | 995.571 | 1531.6
313.15 K, m1 = 0.0698 | 996.873 | 1532.8
313.15 K, m1 = 0.09118 | 998.274 | 1534
313.15 K, m1 = 0.1108 | 999.553 | 1535.1
313.15 K, m1 = 0.1312 | 1000.87 | 1536.2
313.15 K, m1 = 0.1499 | 1002.06 | 1537.3
318.15 K, m1 = 0.05008 | 993.55 | –
318.15 K, m1 = 0.0698 | 994.845 | 1540.2
318.15 K, m1 = 0.09118 | 996.24 | 1541.4
318.15 K, m1 = 0.1108 | – | 1542.4
318.15 K, m1 = 0.1312 | 998.817 | –
318.15 K, m1 = 0.1499 | 1000 | 1544.6
323.15 K, m1 = 0.05008 | 991.349 | 1545.3
323.15 K, m1 = 0.0698 | 992.639 | 1546.3
323.15 K, m1 = 0.09118 | 994.028 | 1547.4
323.15 K, m1 = 0.1108 | 995.295 | 1548.5
323.15 K, m1 = 0.1312 | 996.6 | 1549.5
323.15 K, m1 = 0.1499 | 997.788 | 1550.5
